Measurements: US20110251135A1, “INHIBITORS OF PERITONEAL SEEDING OF CANCER CELLS” (University of Utah Research Foundation, priority 2008, published 2011)
Several values for one entry are separate records, joined by “and”; a condition that tells them apart may be missing. Identical values can stand only once.

Tests used:
HT-29 cells [1] = assay: Intraabdominal seeding model, intraperitoneal injection of colon cancer cells into athymic mice (21 days); type: in vivo, mouse; settings: HT-29 IP in athymic mice, BAY 11-7085 (1 mg/kg) IP 24 hours earlier, then twice weekly, n = 6
Source text: FIG. 6 is a group of photographs showing an intraabdominal seeding model. FIGS. 6A, B, C show tumor implants of the liver of three athymic mice 21 days after receiving intraperitoneal injections of HT-29 cells. The mice were pretreated and treated for a total of 21 days with DMSO twice weekly. […] The mouse was pretreated and treated for a total of 21 days with DMSO twice weekly. FIG. 6E is a micrograph showing tumor invasion through the liver capsule. This section was obtained from the tumor implant from the mouse in FIG. 6A. […] FIG. 6G, (liver), FIG. 6H, (abdominal wall), and FIG. 6I, (intestinal) show tumor implants in three athymic mice 21 days after receiving intraabdominal injections of HCT-116 cells. All of the mice were treated with 5 mg/kg of BAY 11-7085 twice weekly.
HT-29 and HCT-116 cells were harvested in 0.25% trypsin-PBS-EDTA, washed once in media and PBS, and resuspended in PBS at 1 million cells per 200 μL. […] Subcutaneous tumor sizes were determined by measuring the length and width with calipers. […]
During colorectal cancer surgery, seeding of the peritoneal cavity by tumor cells with tumor cell implantation of the peritoneal surfaces can occur. Seeding results from the transient suspension of cancer cells, through a loss of adhesion either naturally ro because of surgical displacement, followed by readhesion to other tissues. […]

HCT-116 cells = assay: Soft agar colony formation assay; type: cell-based, human; settings: 10 μM for 6 days
Description: (§1) DLD-1, HCT-116, and HT-29 cells were cultured for 6 days in soft agar in the presence of DMSO (control), 10 μM BAY 11-7082, or 10 μM BAY 11-7085. The data points represent the means of colony counts per field (20×) performed in 5 different regions of the culture dishes. The data shown represent a typical result of two separate experiments. FIG. 2B and FIG. 2C are graphs that show athymic mice received subcutaneous injections of HT-29 (FIG. B) or HCT-116 (FIG. C) cells, followed by […] of BAY 11-7085 (dark bars) or DMSO (white bars) intraperitoneally twice weekly. The bars represent the 25-75% ranges of the tumor volumes and the horizontal lines in the bars are the medians. Using the Kruskal-Wallace statistical test to compare the median tumor volumes between BAY 11-7085 and DMSO yielded a p-value of 0.005 for HT-29 cells but >0.05 for HCT-116 cells.
(§2) Anchorage-independent cell growth is a hallmark of cancer cells and is a good correlation to tumorigencity in vivo. Therefore, the effects of BAY 11-7082 and BAY 11-7085 were examined on colon cancer cell growth using the soft agar colony formation assay.

DLD-1 cells = assay: Soft agar colony formation assay; type: cell-based, human; settings: 10 μM for 6 days
Description: as §1, §2

HT-29 cells [2] = assay: Soft agar colony formation assay; type: cell-based, human; settings: 10 μM for 6 days
Description: as §1, §2

HCT-116 xenografts = assay: Subcutaneous colon cancer xenograft in athymic mice; type: in vivo, mouse; settings: HCT-116 subcutaneous xenografts; BAY 11-7085 1 mg/kg twice weekly for 28 days vs DMSO
Description: as §1
(§3) HT-29 and HCT-116 cells were harvested in 0.25% trypsin-PBS-EDTA, washed once in media and PBS, and resuspended in PBS at 1 million cells per 200 μL. One million cells were injected either subcutaneously in the backs or intraperitoneally in 5 week old female nu/nu athymic mice (Charles River Labs). For the mice with subcutaneous tumors, the tumors were allowed to establish themselves for 10 days after which they were randomized to BAY 11-7085 or DMSO. For the mice with intraperitoneal tumors, the mice received DMSO or BAY 11-7085 (5 mg/kg) 24 hours before the cancer cells were injected intraperitoneally. […] Subcutaneous tumor sizes were determined by measuring the length and width with calipers. These studies were approved by the University of Utah Institutional Review Board and Institutional Animal Care and Use Committee and performed in the Animal Resource Center. Mice were euthanized when they experienced a greater than 10% loss in body weight or if they appeared ill. Post-mortem examinations included sectioning of kidney, lung, and liver tissues which were stained with hematoxylin and eosin followed by examination for tissue toxicity/damage by an experienced mouse pathologist (E.J.E.) who was blinded to therapy.
(§4) HCT-116 and HT-29 cell lines were used to generate subcutaneous tumors in athymic female mice. The mice were subsequently randomized to be treated with vehicle (DMSO) alone or BAY 11-7085 […] twice weekly for 28 days.

HT-29 xenografts = assay: as above; type: in vivo, mouse
Description: as §1, §3, §4

CC(C)(C)c1ccc(S(=O)(=O)/C=C/C#N)cc1 [BAY 11-7085, (2E)-3-[4-(tertiarybutylphenyl)sulfonyl]-2-propenenitrile]
Liver Metastases (mice with metastases/n) (HT-29 cells [1]): none of the 6 and 0/6
Peritoneal Metastases (mice with metastases/n) (HT-29 cells [1]): 2 of 6 and 2/6
anchorage-independent proliferation (HCT-116 cells): but not HCT-116
anchorage-independent proliferation (DLD-1 cells): significantly inhibited
anchorage-independent proliferation (HT-29 cells [2]): significantly inhibited
tumor volumes vs control group (HCT-116 xenografts): no statistically significant overall difference in the tumor volumes
tumor volumes vs control group (HT-29 xenografts; HT-29 subcutaneous xenografts, BAY 11-7085 1 mg/kg twice weekly for 28 days vs DMSO): statistically significant overall reduction in the tumor volumes
colon cancer xenograft growth (HT-29 xenografts; athymic mice, compound alone, cell line not given): inhibit colon cancer xenograft growth
